Experimental data taken from ChEMBL document CHEMBL1201862, “PubChem BioAssay data set” (2004).
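Following 48 hours of exposure in 96-well plates, responses at five concentrations were used to interpolate endpoints linearly. The concentration for 50% growth inhibition is given as GI50.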 Activity calls are given as the source filed them. No stated cut-off is given here; in the data, active = GI50 up to about 1.1 µM and inactive = higher.

Assays:
Experiment in all cases: growth of human tumour cells (NCI), 48 h
[1] = system: SN12C
[2] = system: NCI-H460
[3] = system: TK-10
[4] = system: HCT-116
[5] = system: SNB-75
[6] = system: HOP-18
[7] = system: HCC 2998
[8] = system: ACHN
[9] = system: UO-31
[10] = system: OVCAR-3
[11] = system: KM-20L2
[12] = system: 786-0
[13] = system: LOX IMVI
[14] = system: NCI-H522
[15] = system: RXF 393
[16] = system: DMS-114
[17] = system: XF498
[18] = system: IGROV-1
[19] = system: SNB-78
[20] = system: A549
[21] = system: UACC-257
[22] = system: OVCAR-8
[23] = system: MOLT-4
[24] = system: SF-295
[25] = system: SF-268
[26] = system: M19-MEL
[27] = system: SK-OV-3
[28] = system: HCT-15
[29] = system: NCI-H23
[30] = system: SK-MEL-5
[31] = system: Malme-3M
[32] = system: HOP-62
[33] = system: RPMI-8226
[34] = system: DMS-273
[35] = system: K562
[36] = system: SK-MEL-2
[37] = system: SF-539
[38] = system: DLD-1
[39] = system: SK-MEL-28
[40] = system: RXF 631
[41] = system: OVCAR-4
[42] = system: HL-60
[43] = system: A498
[44] = system: EKVX
[45] = system: M14
[46] = system: SW-620
[47] = system: UACC-62
[48] = system: CCRF-CEM
[49] = system: NCI-H226
[50] = system: KM12
[51] = system: U-251
[52] = system: OVCAR-5
[53] = system: SNB-19
[54] = system: HT-29
[55] = system: HOP-92
[56] = system: CAKI-1
[57] = system: COLO 205
[58] = system: SR
[59] = system: LXFL 529

C/C=C/C=N/N(C(=O)c1cc([N+](=O)[O-])cc([N+](=O)[O-])c1)C1=NN=C(c2ccccc2)C(c2ccccc2)N1 (stereo not drawn)
GI50 [1]: 57.9 µM (inactive) | GI50 [2]: 91.2 µM (inactive) | GI50 [3]: > 100 µM (inactive) | GI50 [4]: 30.2 µM (inactive) | GI50 [5]: > 100 µM (inactive) | GI50 [6]: > 100 µM (inactive) | GI50 [7]: 34 µM (inactive) | GI50 [8]: 97.5 µM (inactive) | GI50 [9]: 43.9 µM (inactive) | GI50 [10]: 23.4 µM (inactive) | GI50 [11]: 32.1 µM (inactive) | GI50 [12]: 80.4 µM (inactive) | GI50 [13]: 78.5 µM (inactive) | GI50 [14]: 21.4 µM (inactive) | GI50 [15]: > 100 µM (inactive) | GI50 [16]: 21 µM (inactive) | GI50 [17]: 36 µM (inactive) | GI50 [18]: > 100 µM (inactive) | GI50 [19]: 52.8 µM (inactive) | GI50 [20]: 61.2 µM (inactive) | GI50 [21]: 26.5 µM (inactive) | GI50 [22]: 89.9 µM (inactive) | GI50 [23]: 25.7 µM (inactive) | GI50 [24]: 94.6 µM (inactive) | GI50 [25]: 47.2 µM (inactive) | GI50 [26]: 21.6 µM (inactive) | GI50 [27]: > 100 µM (inactive) | GI50 [28]: 41.4 µM | GI50 [29]: 26.9 µM (inactive) | GI50 [30]: 27.2 µM (inactive) | GI50 [31]: 25.6 µM (inactive) | GI50 [32]: > 100 µM (inactive) | GI50 [33]: 24.4 µM (inactive) | GI50 [34]: 46 µM (inactive) | GI50 [35]: 52.8 µM (inactive) | GI50 [36]: 74 µM (inactive) | GI50 [37]: 42.5 µM (inactive) | GI50 [38]: 75.7 µM (inactive) | GI50 [39]: 97.7 µM (inactive) | GI50 [40]: > 100 µM (inactive) | GI50 [41]: 68.4 µM (inactive) | GI50 [42]: 18.6 µM (inactive) | GI50 [43]: > 100 µM (inactive) | GI50 [44]: > 100 µM (inactive) | GI50 [45]: 33.3 µM (inactive) | GI50 [46]: 55 µM (inactive) | GI50 [47]: 51.8 µM (inactive) | GI50 [48]: 36.7 µM (inactive) | GI50 [49]: > 100 µM (inactive) | GI50 [50]: 46.2 µM (inactive) | GI50 [51]: > 100 µM (inactive) | GI50 [52]: > 100 µM (inactive) | GI50 [53]: > 100 µM (inactive) | GI50 [54]: 35.6 µM (inactive) | GI50 [55]: 11.1 µM (inactive) | GI50 [56]: > 100 µM (inactive) | GI50 [57]: 30.5 µM (inactive)

COc1ccc(C2(Cl)C(Cl)(C(F)(F)F)C2(Cl)C(F)(F)F)cc1 (stereo not drawn)
GI50 [1]: 15.8 µM (inactive) | GI50 [2]: 15.9 µM (inactive) | GI50 [3]: 18.1 µM (inactive) | GI50 [4]: 11.7 µM (inactive) | GI50 [5]: 14.9 µM (inactive) | GI50 [6]: 15.3 µM (inactive) | GI50 [7]: 16.3 µM (inactive) | GI50 [8]: 16.8 µM (inactive) | GI50 [9]: 16 µM (inactive) | GI50 [10]: 15.5 µM (inactive) | GI50 [11]: 15.6 µM (inactive) | GI50 [12]: 17.2 µM (inactive) | GI50 [13]: 6.68 µM (inactive) | GI50 [15]: 12.1 µM (inactive) | GI50 [16]: 12.5 µM (inactive) | GI50 [17]: 12.9 µM (inactive) | GI50 [18]: 16.5 µM (inactive) | GI50 [19]: 14.7 µM (inactive) | GI50 [20]: 14.9 µM (inactive) | GI50 [21]: 13.6 µM (inactive) | GI50 [22]: 12.6 µM (inactive) | GI50 [23]: 2.62 µM (inactive) | GI50 [24]: 14.8 µM (inactive) | GI50 [25]: 15.6 µM (inactive) | GI50 [26]: 13.6 µM (inactive) | GI50 [27]: 16.7 µM (inactive) | GI50 [28]: 14.2 µM | GI50 [29]: 14.7 µM (inactive) | GI50 [30]: 10.4 µM (inactive) | GI50 [58]: 10.2 µM (inactive) | GI50 [32]: 18.4 µM (inactive) | GI50 [33]: 9.64 µM (inactive) | GI50 [34]: 14.3 µM (inactive) | GI50 [35]: 20.5 µM (inactive) | GI50 [36]: 14.2 µM (inactive) | GI50 [37]: 15.2 µM (inactive) | GI50 [38]: 15.7 µM (inactive) | GI50 [39]: 15.6 µM (inactive) | GI50 [40]: 15.2 µM (inactive) | GI50 [41]: 16.4 µM (inactive) | GI50 [42]: 8.38 µM (inactive) | GI50 [44]: 17.5 µM (inactive) | GI50 [45]: 11.9 µM (inactive) | GI50 [46]: 15 µM (inactive) | GI50 [47]: 13.6 µM (inactive) | GI50 [48]: 3.78 µM (inactive) | GI50 [49]: 15.5 µM (inactive) | GI50 [50]: 14 µM (inactive) | GI50 [51]: 14.9 µM (inactive) | GI50 [52]: 14.1 µM (inactive) | GI50 [53]: 15.7 µM (inactive) | GI50 [54]: 14.4 µM (inactive) | GI50 [55]: 13.9 µM (inactive) | GI50 [56]: 16 µM (inactive) | GI50 [59]: 13.9 µM (inactive) | GI50 [57]: 15.9 µM (inactive)
